Results on 25 compounds are retold here after US7994209B2, “3-phenoxymethylpyrrolidine compounds” (Theravance, Inc., priority 2009, dated 2011).

What is called Ki is the dissociation constant of the complex between target and ligand, obtained from inhibition or displacement.

One test deals with SERT and NET. The conditions noted are these: cited from earlier work.
The target in test [1] is T1, hSERT (Homo sapiens, UniProt P31645). Briefly: fluorescence-based serotonin reuptake inhibition assay (Tsuruda et al. 2010; data indicated by an asterisk). More on the design: expressed in transfected cells; host or cells: HEK-293. The format is cell-based. To be noted: fluorescence-based assay (values with asterisk), read-out: SERT pIC50 (converted).
Test [2] has as its target T2, hNET (Homo sapiens, UniProt P23975). The experiment in a line: fluorescence-based norepinephrine reuptake inhibition assay (Tsuruda et al. 2010; data indicated by an asterisk). More on the design: expressed in transfected cells; host or cells: HEK-293. The format is cell-based. To be noted: norepinephrine reuptake inhibition, fluorescence-based assay (values with asterisk); read-out: NET pIC50 (converted).

Test [3] addresses T2, hNET. The experiment in a line: hNET membrane radioligand binding assay (3H-nisoxetine), Assay 1.
The target of test [4] is T1, hSERT. Briefly: hSERT membrane radioligand binding assay (3H-citalopram), Assay 1. To be noted: SERT pKi, hSERT HEK-293 membranes, 1.0 nM 3H-citalopram; values given as lower bounds.

T2 sequence (P23975 whole entry): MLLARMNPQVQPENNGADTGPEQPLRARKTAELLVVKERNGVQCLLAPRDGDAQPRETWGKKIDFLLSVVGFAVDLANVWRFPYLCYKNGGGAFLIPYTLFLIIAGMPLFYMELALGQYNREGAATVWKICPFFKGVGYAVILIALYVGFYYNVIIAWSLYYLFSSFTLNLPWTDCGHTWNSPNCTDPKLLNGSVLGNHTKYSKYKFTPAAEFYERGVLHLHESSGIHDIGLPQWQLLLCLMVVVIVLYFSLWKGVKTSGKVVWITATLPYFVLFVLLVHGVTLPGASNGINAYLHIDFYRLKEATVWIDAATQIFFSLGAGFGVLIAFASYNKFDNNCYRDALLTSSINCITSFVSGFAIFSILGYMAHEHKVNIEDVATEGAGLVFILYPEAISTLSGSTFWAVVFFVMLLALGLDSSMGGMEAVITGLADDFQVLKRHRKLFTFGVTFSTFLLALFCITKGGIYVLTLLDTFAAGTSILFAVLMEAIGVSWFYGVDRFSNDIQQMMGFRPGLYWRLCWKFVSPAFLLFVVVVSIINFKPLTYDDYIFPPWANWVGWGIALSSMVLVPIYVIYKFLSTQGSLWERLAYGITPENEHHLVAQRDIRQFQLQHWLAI
T1 sequence (P31645 whole entry): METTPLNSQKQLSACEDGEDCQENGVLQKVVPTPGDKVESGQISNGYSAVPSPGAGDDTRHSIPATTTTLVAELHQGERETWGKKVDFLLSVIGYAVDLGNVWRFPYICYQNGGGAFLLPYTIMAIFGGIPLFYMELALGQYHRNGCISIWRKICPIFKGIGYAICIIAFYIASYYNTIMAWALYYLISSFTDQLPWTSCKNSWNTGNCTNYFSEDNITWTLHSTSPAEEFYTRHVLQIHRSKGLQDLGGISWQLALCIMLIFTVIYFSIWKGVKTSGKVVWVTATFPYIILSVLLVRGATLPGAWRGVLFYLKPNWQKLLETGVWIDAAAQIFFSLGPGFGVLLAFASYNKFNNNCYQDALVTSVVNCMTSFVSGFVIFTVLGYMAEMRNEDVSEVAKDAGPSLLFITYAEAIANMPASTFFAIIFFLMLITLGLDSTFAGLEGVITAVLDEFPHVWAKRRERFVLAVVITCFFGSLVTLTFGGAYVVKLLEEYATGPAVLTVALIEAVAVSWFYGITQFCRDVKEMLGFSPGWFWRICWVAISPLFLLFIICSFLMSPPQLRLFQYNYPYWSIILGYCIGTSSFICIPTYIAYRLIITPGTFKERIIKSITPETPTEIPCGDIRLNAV

`CNCC[C@@H](Oc1ccccc1C)c1ccccc1` [Atomoxetine]: the NET selective in the test on SERT and NET (NET selectivity) is given as 10 fold.
With `CNCC[C@H](Oc1cccc2ccccc12)c1cccs1` [duloxetine], the “selectivity (measured as pKi) for SERT over NET” value in the test with SERT and NET was 10 fold. The “affinity for SERT relative to NET” value with SERT and NET (Vaishnavi et al. (2004)) is reported as “higher affinity for SERT relative to NET”.
For the compound `CC(C)C[C@H](Oc1cccc(Cl)c1Cl)[C@H]1CCNC1` [Example 9, (S)-3-[(S)-1-(2,3-Dichlorophenoxy)-3-methylbutyl]pyrrolidine], the IC50 on hSERT [1] and at hNET [2] was at most 10 nM in each case. For the same compound, the inhibitory constant (Ki) at hNET [3] and on hSERT [4] was at most 10 nM in each case.
`CC(C)C[C@@H](Oc1c(Cl)cccc1Cl)[C@H]1CCNC1` [Example 10-55, (S)-3-[(R)-1-(2,6-Dichlorophenoxy)-3-methylbutyl]pyrrolidine]: the figures for the IC50 at hSERT [1] and on hNET [2] were at most 100 nM and at most 10 nM, respectively. In addition, the inhibitory constant (Ki) at hNET [3] and at hSERT [4] was at most 10 nM throughout.
As for `COc1cc(Cl)c(F)cc1O[C@@H](C1CC1)[C@H]1CCNC1` [Example 16-74, (S)-3-[(S)-(4-Chloro-5-fluoro-2-methoxyphenoxy)cyclopropylmethyl]pyrrolidine], the IC50 at hSERT [1] and on hNET [2] was at most 10 nM throughout. Further, the inhibition constant (Ki) on hNET [3] and on hSERT [4] was at most 10 nM in each case.
For the compound `Fc1ccc(Cl)c(Cl)c1O[C@H](C1CC1)[C@H]1CCNC1` [Example 16-60, (S)-3-[(R)cyclopropyl-(2,3-dichloro-6-fluorophenoxy)methyl]pyrrolidine], the IC50 at hSERT [1] and on hNET [2] was at most 10 nM in each case. Also, the inhibition constant Ki at hNET [3] and on hSERT [4] was at most 10 nM each time.
Turning to `Fc1ccc(O[C@@H](C2CC2)[C@H]2CCNC2)c(F)c1F` [Example 16-46, (S)-3-[(S)cyclopropyl-(2,3,4-trifluorophenoxy)methyl]pyrrolidine], the IC50 at hSERT [1] and at hNET [2] was at most 10 nM in each case. Also, the inhibition constant (Ki) on hNET [3] and at hSERT [4] was at most 10 nM each time.
As for `Clc1ccc(O[C@H](C2CC2)[C@H]2CCNC2)cc1Cl` [Example 16-88, (S)-3-[(R)cyclopropyl-(3,4-dichlorophenoxy)methyl]pyrrolidine], the IC50 at hSERT [1] and at hNET [2] was at most 10 nM throughout. In addition, the Ki on hNET [3] and on hSERT [4] was at most 10 nM in each case.
Take `Clc1cccc(O[C@@H](C2CC2)[C@H]2CCNC2)c1` [Example 16-84, (S)-3-[(S)-(3-Chlorophenoxy)cyclopropylmethyl]pyrrolidine]: the IC50 on hSERT [1] was at most 100 nM; on hNET [2], at most 10 nM. For the same compound, the Ki on hNET [3] and on hSERT [4] was at most 10 nM throughout.
For the compound `Fc1ccc(Cl)c(F)c1O[C@H](C1CC1)[C@H]1CCNC1` [Example 16-67, (S)-3-[(R)-(3-Chloro-2,6-difluorophenoxy)cyclopropylmethyl]pyrrolidine], the IC50 on hSERT [1] is at most 100 nM; on hNET [2], at most 10 nM. In addition, the inhibitory constant (Ki) on hNET [3] and at hSERT [4] was at most 10 nM in each case.
As for `Cc1cc(O[C@@H](C2CC2)[C@H]2CCNC2)ccc1Cl` [Example 16-94, (S)-3-[(S)-(4-Chloro-3-methylphenoxy)cyclopropylmethyl]pyrrolidine], the IC50 at hSERT [1] and on hNET [2] was at most 10 nM each time. Also, the inhibition constant Ki at hNET [3] and at hSERT [4] was at most 10 nM each time.
Turning to `Fc1ccc(Cl)c(Cl)c1O[C@@H](C1CC1)[C@H]1CCNC1` [Example 16-59, (S)-3-[(S)cyclopropyl-(2,3-dichloro-6-fluorophenoxy)methyl]pyrrolidine], the IC50 at hSERT [1] and on hNET [2] was at most 10 nM in each case. The inhibition constant (Ki) at hNET [3] and at hSERT [4] was at most 10 nM each time.
In the case of `Fc1ccc(O[C@H](C2CC2)[C@H]2CCNC2)c(F)c1F` [Example 16-47, (S)-3-[(R)cyclopropyl-(2,3,4-trifluorophenoxy)methyl]pyrrolidine], the IC50 at hSERT [1] and on hNET [2] was at most 10 nM throughout. The inhibition constant (Ki) on hNET [3] is at most 100 nM; at hSERT [4], at most 10 nM.
Consider `Cc1cc(O[C@@H](C2CC2)[C@H]2CCNC2)c(Cl)cc1Cl` [Example 16-72, (S)-3-[(S)cyclopropyl-(2,4-dichloro-5-methylphenoxy)methyl]pyrrolidine], for which the IC50 on hSERT [1] is at most 10 nM; at hNET [2], at most 100 nM. In addition, the Ki at hNET [3] is at most 100 nM; at hSERT [4] it was at most 10 nM.
Take `CC(C)[C@H](Oc1cccc(Cl)c1C(F)(F)F)[C@H]1CCNC1` [Example 6-49, (S)-3-[(S)-1-(3-Chloro-2-trifluoromethylphenoxy)-2-methylpropyl]pyrrolidine]: the IC50 was at most 100 nM on hSERT [1] and at most 10 nM at hNET [2]. The Ki at hNET [3] and at hSERT [4] was at most 10 nM in each case.
Regarding `CCOc1cc(Cl)ccc1O[C@@H](C1CC1)[C@H]1CCNC1` [Example 16-41, (S)-3-[(S)-(4-Chloro-2-ethoxyphenoxy)cyclopropylmethyl]pyrrolidine], the values for the IC50 at hSERT [1] and on hNET [2] were at most 100 nM and at most 10 nM, respectively. The Ki at hNET [3] and on hSERT [4] was at most 10 nM in each case.
Regarding `COc1ccc(F)c(O[C@@H](C2CC2)[C@H]2CCNC2)c1Cl` [Example 16-64, (S)-3-[(S)-(2-Chloro-6-fluoro-3-methoxyphenoxy)cyclopropylmethyl]pyrrolidine], the IC50 at hSERT [1] and at hNET [2] was at most 10 nM in each case. Also, the inhibitory constant (Ki) on hNET [3] and on hSERT [4] was at most 10 nM throughout.
Take `Cc1ccc(F)c(O[C@@H](C2CC2)[C@H]2CCNC2)c1Cl` [Example 16-62, (S)-3-[(S)-(2-Chloro-6-fluoro-3-methylphenoxy)cyclopropylmethyl]pyrrolidine]: the figures for the IC50 at hSERT [1] and on hNET [2] were at most 100 nM and at most 10 nM, respectively. The inhibition constant Ki at hNET [3] and on hSERT [4] was at most 10 nM in each case.
With `CC(C)[C@H](Oc1ccc(Cl)cc1C(F)(F)F)[C@H]1CCNC1` [Example 6-51, (S)-3-[(S)-1-(4-Chloro-2-trifluoromethylphenoxy)-2-methylpropyl]pyrrolidine], the IC50 on hSERT [1] was at most 100 nM; at hNET [2], at most 10 nM. The inhibition constant Ki at hNET [3] and on hSERT [4] was at most 10 nM in each case.
For `Fc1ccc(O[C@@H](C2CC2)[C@H]2CCNC2)c(F)c1Cl` [Example 16-53, (S)-3-[(S)-(3-Chloro-2,4-difluorophenoxy)cyclopropylmethyl]pyrrolidine], the IC50 at hSERT [1] and at hNET [2] was at most 10 nM in each case. Besides, the Ki on hNET [3] and at hSERT [4] was at most 10 nM in each case.
As to `CCN(CC)C(=O)C1(c2ccccc2)CC1CN` (centres unmarked) [milnacipran], the “selectivity (measured as pKi) for SERT over NET” value in the test on SERT and NET is given as 2.5 fold.
For the compound `Clc1ccccc1O[C@H](C1CC1)[C@H]1CCNC1` [Example 16-2, (S)-3-[(R)-(2-Chlorophenoxy)cyclopropylmethyl]pyrrolidine], the IC50 at hSERT [1] is at most 100 nM; at hNET [2], at most 10 nM. The Ki at hNET [3] and on hSERT [4] was at most 10 nM throughout.
As for `Clc1ccccc1O[C@@H](C1CC1)[C@H]1CCNC1` [Example 16-1, (S)-3-[(S)-(2-Chlorophenoxy)cyclopropylmethyl]pyrrolidine], the IC50 on hSERT [1] was at most 100 nM; on hNET [2], at most 10 nM. The Ki on hNET [3] and at hSERT [4] was at most 10 nM each time.
For the compound `Cc1c(Cl)cccc1O[C@@H](CC(C)C)[C@@H]1CCNC1` [Example 10-32, (R)-3-[(S)-1-(3-Chloro-2-methylphenoxy)-3-methylbutyl]pyrrolidine], the IC50 on hSERT [1] and at hNET [2] was at most 10 nM throughout. The Ki on hNET [3] and at hSERT [4] was at most 10 nM throughout.
Turning to `CC(C)C[C@H](Oc1cccc(F)c1Cl)[C@@H]1CCNC1` [Example 10-28, (R)-3-[(S)-1-(2-Chloro-3-fluorophenoxy)-3-methylbutyl]pyrrolidine], the IC50 on hSERT [1] and at hNET [2] was at most 10 nM each time. Further, the Ki on hNET [3] and on hSERT [4] was at most 10 nM in each case.
